Experimental data published in publication PMC10853020 (Journal of medicinal chemistry, 2023).

How the values were obtained:
h5-HT2CR = target: T1, h5-HT2CR (Homo sapiens, UniProt P28335); assay: 5-HT-induced Cai^2+ release in h5-HT2CR-CHO cells; assay type: cell-based; details: 1 nM
T1 sequence (P28335 33-458): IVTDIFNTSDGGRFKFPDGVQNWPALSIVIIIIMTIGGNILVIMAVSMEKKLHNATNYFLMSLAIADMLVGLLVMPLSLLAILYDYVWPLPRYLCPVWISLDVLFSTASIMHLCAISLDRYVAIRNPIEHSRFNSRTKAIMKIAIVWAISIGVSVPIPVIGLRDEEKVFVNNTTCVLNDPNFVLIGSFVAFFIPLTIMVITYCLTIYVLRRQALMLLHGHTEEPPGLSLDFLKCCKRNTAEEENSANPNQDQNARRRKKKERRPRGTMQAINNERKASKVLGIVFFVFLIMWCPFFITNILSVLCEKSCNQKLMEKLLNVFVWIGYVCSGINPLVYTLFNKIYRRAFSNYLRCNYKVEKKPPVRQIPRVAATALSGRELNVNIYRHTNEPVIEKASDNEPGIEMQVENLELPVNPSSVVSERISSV

HERG = HERG (Homo sapiens, UniProt Q12809); assay: NIMH PDSP radioligand binding displacement
Sequence of HERG (Q12809 whole entry): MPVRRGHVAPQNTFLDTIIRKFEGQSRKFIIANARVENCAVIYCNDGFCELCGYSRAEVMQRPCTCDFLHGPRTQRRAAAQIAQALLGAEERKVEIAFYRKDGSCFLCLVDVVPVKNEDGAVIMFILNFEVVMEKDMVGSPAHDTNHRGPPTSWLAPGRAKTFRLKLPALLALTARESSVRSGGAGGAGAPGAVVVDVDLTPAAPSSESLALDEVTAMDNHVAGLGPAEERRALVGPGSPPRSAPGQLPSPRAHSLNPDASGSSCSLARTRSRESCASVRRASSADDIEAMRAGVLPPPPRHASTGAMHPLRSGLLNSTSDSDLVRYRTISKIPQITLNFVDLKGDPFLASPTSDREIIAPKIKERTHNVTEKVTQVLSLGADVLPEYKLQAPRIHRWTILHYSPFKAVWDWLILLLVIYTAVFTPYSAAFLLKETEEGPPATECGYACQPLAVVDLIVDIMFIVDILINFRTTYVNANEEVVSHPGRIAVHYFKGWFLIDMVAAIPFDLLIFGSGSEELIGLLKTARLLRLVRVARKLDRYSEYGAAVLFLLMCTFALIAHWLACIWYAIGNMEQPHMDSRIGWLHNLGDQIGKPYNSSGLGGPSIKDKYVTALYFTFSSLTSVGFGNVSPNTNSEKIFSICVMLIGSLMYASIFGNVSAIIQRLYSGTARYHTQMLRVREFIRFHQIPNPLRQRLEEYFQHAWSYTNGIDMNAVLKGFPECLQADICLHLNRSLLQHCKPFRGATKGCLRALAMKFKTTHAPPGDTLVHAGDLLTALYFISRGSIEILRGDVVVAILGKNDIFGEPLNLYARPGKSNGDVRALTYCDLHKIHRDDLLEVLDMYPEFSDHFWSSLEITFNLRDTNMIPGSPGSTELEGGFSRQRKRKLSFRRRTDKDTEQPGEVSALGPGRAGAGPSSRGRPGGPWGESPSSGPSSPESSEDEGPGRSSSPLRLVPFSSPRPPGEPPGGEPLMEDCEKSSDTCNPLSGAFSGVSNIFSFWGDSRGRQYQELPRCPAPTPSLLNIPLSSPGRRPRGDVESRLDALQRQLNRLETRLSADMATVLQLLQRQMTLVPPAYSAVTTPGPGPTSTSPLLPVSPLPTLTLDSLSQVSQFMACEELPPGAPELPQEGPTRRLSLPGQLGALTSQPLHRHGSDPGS

σ2 receptor = target: T2, σ2 receptor (Rattus norvegicus, UniProt Q5U3Y7); assay: NIMH PDSP radioligand binding displacement
T2 sequence (Q5U3Y7 1-176): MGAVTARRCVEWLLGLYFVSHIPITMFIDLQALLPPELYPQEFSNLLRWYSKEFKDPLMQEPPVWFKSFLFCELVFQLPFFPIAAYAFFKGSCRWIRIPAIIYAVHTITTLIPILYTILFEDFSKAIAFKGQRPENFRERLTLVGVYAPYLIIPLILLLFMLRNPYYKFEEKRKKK

male Sprague–Dawley rats = assay: Novelty-induced; assay type: in vivo, rat; details: 30 mg/kg ip, 30 min prior; vs vehicle; p < 0.0001

| Compound | 5-HT2CR PAM activity (h5-HT2CR) | other results |
| --- | --- | --- |
| CCCCCCCC/C=C\CCCCCCCC(=O)NCCCO [Compound 8, N-(3-Hydroxypropyl)oleamide] | potentiated 5-HT-evoked Cai^2+ release | – |
| CCCCCCCC/C=C\CCCCCCCC(=O)NC[C@H](O)CO [Compound 10, (S)-N-(2,3-Dihydroxypropyl)oleamide] | inactive | – |
| CCCCCCCC/C=C\CCCCCCCC(=O)NC(CO)CO [Compound 11, N-(1,3-Dihydroxypropan-2-yl)oleamide] | – | displacement of binding to the hERG potassium channel (HERG): did not displace binding |
| CCCCCCCC/C=C\CCCCCCCC(=O)NC(CO)(CO)CO [Compound 13, N-(1,3-Dihydroxy-2-(hydroxymethyl)propan-2-yl)oleamide] | – | Ki (σ2 receptor): 3.6 µM; total ambulations over a 90 min session (male Sprague–Dawley rats): significantly reduced total ambulations vs vehicle |
| CCCCCCCC/C=C\CCCCCCCC(=O)NCC(OCC)OCC [Compound 14, N-(2,2-Diethoxyethyl)oleamide] | did not evoke PAM activity | – |
